Reference: PubChem BioAssay (NCI)
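Growth conditions: 96-well plates. Treatment: test compound, 48 hours, 5 concentrations. Analysis: linear interpolation between bracketing concentrations; unreached endpoints set to highest concentration. Definition used: TGI = concentration required for complete inhibition of growth.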

How the values were obtained:
Experiment in all cases: NCI-60 cell line screen, 48 h
[1] = tested on: A549 NSCLC
[2] = tested on: MCF7 breast
[3] = tested on: KM12 colon
[4] = tested on: UACC-257 melanoma
[5] = tested on: MDA-MB-231 breast
[6] = tested on: LOX IMVI melanoma
[7] = tested on: HCT-15 colon
[8] = tested on: DMS 114 small cell lung
[9] = tested on: HOP-18 NSCLC
[10] = tested on: SK-MEL-5 melanoma
[11] = tested on: SNB-19 CNS
[12] = tested on: ACHN renal
[13] = tested on: SN12C renal
[14] = tested on: DMS 273 small cell lung
[15] = tested on: NCI-H23 lung
[16] = tested on: SW-620 colon
[17] = tested on: DU-145 prostate
[18] = tested on: K-562 leukemia
[19] = tested on: MDA-N
[20] = tested on: NCI-H522 lung
[21] = tested on: IGROV1 ovarian
[22] = tested on: SF-268 CNS
[23] = tested on: SK-MEL-2 melanoma
[24] = tested on: HCC-2998 colon
[25] = tested on: NCI-H460 lung
[26] = tested on: OVCAR-3 ovarian
[27] = tested on: XF 498 CNS
[28] = tested on: OVCAR-5 ovarian
[29] = tested on: LXFL 529 NSCLC
[30] = tested on: SK-MEL-28 melanoma
[31] = tested on: SR leukemia
[32] = tested on: HOP-92 NSCLC
[33] = tested on: UACC-62 melanoma
[34] = tested on: M14 melanoma
[35] = tested on: CAKI-1 renal
[36] = tested on: HS 578T breast
[37] = tested on: HCT-116 colon
[38] = tested on: U251 CNS
[39] = tested on: BT-549 breast
[40] = tested on: HL-60(TB) leukemia
[41] = tested on: PC-3 prostate
[42] = tested on: RXF 393 renal
[43] = tested on: UO-31 renal
[44] = tested on: MDA-MB-435
[45] = tested on: 786-0 renal
[46] = tested on: HT29 colon
[47] = tested on: OVCAR-8 ovarian
[48] = tested on: DLD-1 colon
[49] = tested on: EKVX NSCLC
[50] = tested on: SK-OV-3 ovarian
[51] = tested on: NCI/ADR-RES ovarian
[52] = tested on: SF-539 CNS
[53] = tested on: SF-295 CNS
[54] = tested on: SNB-75 CNS
[55] = tested on: TK-10 renal
[56] = tested on: M19-MEL melanoma
[57] = tested on: NCI-H226 lung
[58] = tested on: CCRF-CEM leukemia
[59] = tested on: OVCAR-4 ovarian
[60] = tested on: RPMI-8226 leukemia
[61] = tested on: HOP-62 NSCLC
[62] = tested on: A498 renal
[63] = tested on: MOLT-4 leukemia
[64] = tested on: COLO 205 colon
[65] = tested on: MALME-3M melanoma
[66] = tested on: KM20L2 colon
[67] = tested on: SNB-78 CNS

**Q.** What does the source list for COc1ccc(-c2nc(N)n(C)c2SSc2c(-c3ccc(OC)cc3)nc(N)n2C)cc1?
**A.** TGI [1]: 45.4 µM; TGI [2]: 23 µM; TGI [3]: 26.7 µM; TGI [4]: 14.5 µM; TGI [5]: 19.7 µM; TGI [6]: 4.22 µM; TGI [7]: 8.73 µM; TGI [8]: 4.61 µM; TGI [9]: 17.8 µM; TGI [10]: 4.15 µM; TGI [11]: 27.2 µM; TGI [12]: 8.3 µM; TGI [13]: 25.5 µM; TGI [14]: 13.4 µM; TGI [15]: 17.8 µM; TGI [16]: 5.09 µM; TGI [17]: 31.4 µM; TGI [18]: 15.5 µM; TGI [19]: 6 µM; TGI [20]: 3.57 µM; TGI [21]: 29.4 µM; TGI [22]: 33.7 µM; TGI [23]: 29.5 µM; TGI [24]: 31.8 µM; TGI [25]: 42.5 µM; TGI [26]: 21.2 µM; TGI [27]: 4.92 µM; TGI [28]: 14.5 µM; TGI [29]: 3.4 µM; TGI [30]: 10.2 µM; TGI [31]: 5.48 µM; TGI [32]: 6.21 µM; TGI [33]: 10 µM; TGI [34]: 4.87 µM; TGI [35]: 24.6 µM; TGI [36]: 29.7 µM; TGI [37]: 7.49 µM; TGI [38]: 26.2 µM; TGI [39]: 5.54 µM; TGI [40]: 14.1 µM; TGI [41]: 18.2 µM; TGI [42]: 6.63 µM; TGI [43]: 11.9 µM; TGI [44]: 13.9 µM; TGI [45]: 29.2 µM; TGI [46]: 28.5 µM; TGI [47]: 16.3 µM; TGI [48]: 15.3 µM; TGI [49]: 44.3 µM; TGI [50]: 32.6 µM; TGI [51]: 35.1 µM; TGI [52]: 13.4 µM; TGI [53]: 25.5 µM; TGI [54]: 24.8 µM; TGI [55]: 27.6 µM; TGI [56]: 4.67 µM; TGI [57]: 37.3 µM; TGI [58]: 11.9 µM; TGI [59]: 15.9 µM; TGI [60]: 7.46 µM; TGI [61]: 32.1 µM; TGI [62]: 35.7 µM; TGI [63]: 5.1 µM; TGI [64]: 4.76 µM; TGI [65]: 22.2 µM; TGI [66]: 30.9 µM

**Q.** C1OC1C1CO1 (stereo not given) was tested. Which TGI [1] did it give?
**A.** > 100 µM

**Q.** What about the TGI [3] of the same molecule?
**A.** > 100 µM

**Q.** And the TGI [4]?
**A.** > 100 µM

**Q.** And the TGI [6]?
**A.** > 100 µM

**Q.** What about the TGI [7] of the same molecule?
**A.** > 100 µM

**Q.** And the TGI [8]?
**A.** > 100 µM

**Q.** And the TGI [9]?
**A.** > 100 µM

**Q.** What about the TGI [10] of the same molecule?
**A.** > 100 µM

**Q.** And the TGI [11]?
**A.** > 100 µM

**Q.** What about the TGI [13] of the same molecule?
**A.** > 100 µM

**Q.** What about the TGI [14] of the same molecule?
**A.** > 100 µM

**Q.** What about the TGI [15] of the same molecule?
**A.** > 100 µM

**Q.** What about the TGI [16] of the same molecule?
**A.** > 100 µM

**Q.** What about the TGI [67] of the same molecule?
**A.** > 100 µM

**Q.** What about the TGI [18] of the same molecule?
**A.** > 100 µM

**Q.** What about the TGI [20] of the same molecule?
**A.** > 100 µM

**Q.** What about the TGI [21] of the same molecule?
**A.** > 100 µM

**Q.** And the TGI [22]?
**A.** > 100 µM

**Q.** What about the TGI [23] of the same molecule?
**A.** > 100 µM

**Q.** And the TGI [24]?
**A.** > 100 µM

**Q.** What about the TGI [26] of the same molecule?
**A.** > 100 µM

**Q.** And the TGI [27]?
**A.** > 100 µM

**Q.** And the TGI [28]?
**A.** > 100 µM

**Q.** What about the TGI [30] of the same molecule?
**A.** > 100 µM

**Q.** And the TGI [31]?
**A.** > 100 µM

**Q.** And the TGI [32]?
**A.** > 100 µM

**Q.** And the TGI [33]?
**A.** > 100 µM

**Q.** And the TGI [34]?
**A.** > 100 µM

**Q.** And the TGI [35]?
**A.** > 100 µM

**Q.** And the TGI [37]?
**A.** > 100 µM

**Q.** And the TGI [38]?
**A.** > 100 µM

**Q.** And the TGI [40]?
**A.** 64.2 µM

**Q.** What about the TGI [42] of the same molecule?
**A.** > 100 µM

**Q.** And the TGI [43]?
**A.** > 100 µM

**Q.** And the TGI [45]?
**A.** > 100 µM

**Q.** And the TGI [46]?
**A.** > 100 µM

**Q.** What about the TGI [47] of the same molecule?
**A.** > 100 µM

**Q.** What about the TGI [48] of the same molecule?
**A.** > 100 µM

**Q.** What about the TGI [49] of the same molecule?
**A.** > 100 µM

**Q.** What about the TGI [50] of the same molecule?
**A.** > 100 µM

**Q.** And the TGI [52]?
**A.** > 100 µM

**Q.** And the TGI [53]?
**A.** > 100 µM

**Q.** What about the TGI [54] of the same molecule?
**A.** > 100 µM

**Q.** What about the TGI [55] of the same molecule?
**A.** > 100 µM

**Q.** What about the TGI [56] of the same molecule?
**A.** > 100 µM

**Q.** What about the TGI [57] of the same molecule?
**A.** > 100 µM

**Q.** What about the TGI [58] of the same molecule?
**A.** > 100 µM

**Q.** What about the TGI [59] of the same molecule?
**A.** > 100 µM

**Q.** And the TGI [60]?
**A.** > 100 µM

**Q.** What about the TGI [61] of the same molecule?
**A.** > 100 µM

**Q.** What about the TGI [63] of the same molecule?
**A.** > 100 µM

**Q.** What about the TGI [64] of the same molecule?
**A.** > 100 µM

**Q.** What about the TGI [65] of the same molecule?
**A.** > 100 µM

**Q.** And the TGI [66]?
**A.** > 100 µM
